Ki data for 23 compounds are collected here from patent US8461328B2, “Tricyclic heterocyclic compounds, compositions and methods of use thereof” (Genentech, Inc., priority 2010, dated 2013).

The term Ki denotes a dissociation constant, usually derived from enzyme kinetics or from competition with a known ligand.

What all share (format): biochemical
One assay deals with T1, JAK2 (Homo sapiens, UniProt O60674).
T1 construct: made in house; host or cells: SF9 insect cells (baculovirus)
Put plainly: JAK2 inhibition (Table 4). The settings on record: read-out: JAK2 Ki.

For another assay, the target named is T2, JAK3 (Homo sapiens, UniProt P52333).
T2 construct: made in house; host or cells: SF9 insect cells (baculovirus)
Put plainly: JAK3 inhibition (Table 4). The settings on record: read-out: JAK3 Ki.

In a further assay the target is T3, TYK2 (Homo sapiens, UniProt P29597).
T3 construct: made in house; host or cells: SF9 insect cells (baculovirus)
T3 sequence (P29597 873-1187): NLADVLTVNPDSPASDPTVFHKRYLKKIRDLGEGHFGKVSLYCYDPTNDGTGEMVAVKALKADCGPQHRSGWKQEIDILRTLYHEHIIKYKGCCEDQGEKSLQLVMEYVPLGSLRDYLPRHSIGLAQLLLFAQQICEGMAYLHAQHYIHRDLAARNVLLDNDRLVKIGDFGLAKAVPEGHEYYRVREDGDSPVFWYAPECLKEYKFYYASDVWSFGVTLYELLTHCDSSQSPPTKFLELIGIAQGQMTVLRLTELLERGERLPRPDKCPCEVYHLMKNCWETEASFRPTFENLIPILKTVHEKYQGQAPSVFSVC
Nature of the assay: TYK2 inhibition (Table 4).

For the next assay, the target named is T4, JAK1 (Homo sapiens, UniProt P23458).
T4 construct: made in house; host or cells: SF9 insect cells (baculovirus)
Put plainly: JAK1 inhibition (Table 4). The settings on record: read-out: JAK1 Ki.

T1 sequence (O60674 812-1132): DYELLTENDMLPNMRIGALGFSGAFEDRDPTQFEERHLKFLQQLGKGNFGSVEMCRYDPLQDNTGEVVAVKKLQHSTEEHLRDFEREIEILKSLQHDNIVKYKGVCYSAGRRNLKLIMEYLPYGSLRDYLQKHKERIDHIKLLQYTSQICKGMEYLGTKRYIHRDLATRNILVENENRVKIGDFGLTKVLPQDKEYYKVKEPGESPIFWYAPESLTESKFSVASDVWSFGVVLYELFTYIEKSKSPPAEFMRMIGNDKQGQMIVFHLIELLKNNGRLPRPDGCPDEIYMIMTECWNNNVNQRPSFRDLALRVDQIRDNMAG
T4 sequence (P23458 852-1154): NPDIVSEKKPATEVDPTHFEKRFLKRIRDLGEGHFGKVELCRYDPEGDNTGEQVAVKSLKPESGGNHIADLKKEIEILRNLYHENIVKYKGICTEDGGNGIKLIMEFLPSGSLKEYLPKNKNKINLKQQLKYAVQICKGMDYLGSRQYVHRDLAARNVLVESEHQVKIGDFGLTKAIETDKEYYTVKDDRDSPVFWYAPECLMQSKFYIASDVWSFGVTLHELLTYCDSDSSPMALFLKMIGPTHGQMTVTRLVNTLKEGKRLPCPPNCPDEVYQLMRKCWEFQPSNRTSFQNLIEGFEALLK
T2 sequence (P52333 783-1124): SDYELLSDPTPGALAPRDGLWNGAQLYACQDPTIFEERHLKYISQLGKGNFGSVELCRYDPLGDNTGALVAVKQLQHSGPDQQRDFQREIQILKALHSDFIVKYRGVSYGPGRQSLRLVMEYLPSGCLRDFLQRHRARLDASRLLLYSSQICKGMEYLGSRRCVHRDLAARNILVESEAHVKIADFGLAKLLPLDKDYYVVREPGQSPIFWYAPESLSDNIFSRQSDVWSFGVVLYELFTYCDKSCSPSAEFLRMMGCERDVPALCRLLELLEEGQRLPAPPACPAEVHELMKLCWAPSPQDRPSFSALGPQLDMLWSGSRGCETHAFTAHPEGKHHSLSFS

Take `CC(C)N1CCC(n2cnc3cnc4[nH]ccc4c32)CC1` [Example 549, 1-(1-Isopropyl-piperidin-4-yl)-1,6-dihydro-1,3,5,6-tetraaza-as-indacene]: the Ki at JAK2 was determined as 182 nM; on JAK3, 3490 nM; on TYK2 it was 809 nM; at JAK1, 92.4 nM.
The corresponding values for `CC(=O)N1CCC(N[C@H]2CC[C@H](n3cnc4cnc5[nH]ccc5c43)CC2)CC1` [Example 555, trans 1-{4-[4-(6H-1,3,5,6-Tetraaza-as-indacen-1-yl)-cyclohexylamino]-piperidin-1-yl}-ethanone] are 276 nM, 491 nM, 302 nM and 33 nM.
With `CC(C)(C)OC(=O)N1CCC[C@@H]1CN[C@H]1CC[C@H](n2cnc3cnc4[nH]ccc4c32)CC1` [Example 556, trans (R)-2-{[4-(6H-1,3,5,6-Tetraaza-as-indacen-1-yl)-cyclohexylamino]-methyl}-pyrrolidine-1-carboxylic acid tert-butyl ester], the Ki on JAK2 was determined as 190 nM; at JAK3, 894 nM; at TYK2, 1460 nM; on JAK1 it was 60.4 nM.
The corresponding values for `CC(C)(C)OC(=O)N1CC(CN[C@H]2CC[C@H](n3cnc4cnc5[nH]ccc5c43)CC2)C1` [Example 557, trans 3-{[4-(6H-1,3,5,6-Tetraaza-as-indacen-1-yl)-cyclohexylamino]-methyl}-azetidine-1-carboxylic acid tert-butyl ester] are 136 nM, 310 nM, 443 nM and 21.4 nM.
The corresponding values for `CC(C)(C)OC(=O)N1CCC(N[C@H]2CC[C@H](n3cnc4cnc5[nH]ccc5c43)CC2)CC1` [Example 558, trans 4-[4-(6H-1,3,5,6-Tetraaza-as-indacen-1-yl)-cyclohexylamino]-piperidine-1-carboxylic acid tert-butyl ester] are 60.9 nM, 110 nM, 39.2 nM and 6.94 nM.
The corresponding values for `CC(C)(C)OC(=O)N1CCCC[C@@H]1CN[C@H]1CC[C@H](n2cnc3cnc4[nH]ccc4c32)CC1` [Example 563, trans (R)-2-{[4-(6H-1,3,5,6-Tetraaza-as-indacen-1-yl)-cyclohexylamino]-methyl}-piperidine-1-carboxylic acid tert-butyl ester] are 611 nM, 2360 nM, 3320 nM and 91 nM.
Turning to `CC(C)(C)OC(=O)N1CCC[C@H](CN[C@H]2CC[C@H](n3cnc4cnc5[nH]ccc5c43)CC2)C1` [Example 565, trans (R)-3-{[4-(6H-1,3,5,6-Tetraaza-as-indacen-1-yl)-cyclohexylamino]-methyl}-piperidine-1-carboxylic acid tert-butyl ester], the Ki was 397 nM at JAK2, 1050 nM on JAK3, 1950 nM on TYK2 and 90.8 nM on JAK1.
Taken in the same sequence, the figures for `CC(C)(C)OC(=O)N1CCC[C@@H](CN[C@H]2CC[C@H](n3cnc4cnc5[nH]ccc5c43)CC2)C1` [Example 566, trans (S)-3-{[4-(6H-1,3,5,6-Tetraaza-as-indacen-1-yl)-cyclohexylamino]-methyl}-piperidine-1-carboxylic acid tert-butyl ester] were 186 nM, 498 nM, 260 nM and 20.5 nM.
Taken in the same sequence, the figures for `N#CCN1CCC(N[C@H]2CC[C@H](n3cnc4cnc5[nH]ccc5c43)CC2)CC1` [Example 568, trans {4-[4-(6H-1,3,5,6-Tetraaza-as-indacen-1-yl)-cyclohexylamino]-piperidin-1-yl}-acetonitrile] were 48.6 nM, 59.8 nM, 65.2 nM and 2.91 nM.
Taken in the same sequence, the figures for `CC(C)CN[C@H]1CC[C@H](n2cnc3cnc4[nH]ccc4c32)CC1` [Example 569, trans Isobutyl-[4-(6H-1,3,5,6-tetraaza-as-indacen-1-yl)-cyclohexyl]-amine] were 95.8 nM, 448 nM, 254 nM and 12.7 nM.
For the compound `O=C(N[C@H]1CC[C@H](n2cnc3cnc4[nH]ccc4c32)CC1)c1ccncc1` [Example 570, trans N-[4-(6H-1,3,5,6-Tetraaza-as-indacen-1-yl)-cyclohexyl]-isonicotinamide], the inhibitory constant (Ki) at JAK2 worked out at 10 nM; at JAK3 it was 116 nM; on TYK2, 77.7 nM; at JAK1, 11.2 nM.
With `O=C(N[C@H]1CC[C@H](n2cnc3cnc4[nH]ccc4c32)CC1)C1CC1` [Example 572, trans Cyclopropanecarboxylic acid [4-(6H-1,3,5,6-tetraaza-as-indacen-1-yl)-cyclohexyl]-amide], the inhibition constant Ki was 27 nM on JAK2, 201 nM at JAK3, 119 nM at TYK2 and 11.6 nM at JAK1.
Take `COCCC(=O)N[C@H]1CC[C@H](n2cnc3cnc4[nH]ccc4c32)CC1` [Example 573, trans 3-Methoxy-N-[4-(6H-1,3,5,6-tetraaza-as-indacen-1-yl)-cyclohexyl]-propionamide]: the Ki on JAK2 amounted to 10.7 nM; at JAK3, 69.5 nM; at TYK2 it was 91.5 nM; at JAK1, 4.62 nM.
The corresponding values for `Cn1cncc1CN[C@H]1CC[C@H](n2cnc3cnc4[nH]ccc4c32)CC1` [Example 575, trans (3-Methyl-3H-imidazol-4-ylmethyl)-[4-(6H-1,3,5,6-tetraaza-as-indacen-1-yl)-cyclohexyl]-amine] are 34 nM, 206 nM, 44.7 nM and 7.17 nM.
The corresponding values for `CC1(n2cnc3cnc4[nH]ccc4c32)CCN(C(=O)CC#N)CC1` [Example 579, 3-[4-Methyl-4-(6H-1,2,3,5,6-tetraaza-as-indacen-1-yl)-piperidin-1-yl]-3-oxo-propionitrile] are 483 nM, 1360 nM, 329 nM and 106 nM.
The corresponding values for `Cc1nc2cnc3[nH]ccc3c2n1C1(C)CCN(S(C)(=O)=O)CC1` [Example 580, 1-(1-Methanesulfonyl-4-methyl-piperidin-4-yl)-2-methyl-1,6-dihydro-1,2,3,5,6-tetraaza-as-indacene] are 12.8 nM, 58.5 nM, 41.3 nM and 1.45 nM.
For the compound `Cc1nc2cnc3[nH]ccc3c2n1C1(C)CCN(CCC#N)CC1` [Example 581, 3-[4-Methyl-4-(2-methyl-6H-1,2,3,5,6-tetraaza-as-indacen-1-yl)-piperidin-1-yl]-propionitrile], the Ki on JAK2 was determined as 114 nM; on JAK3 it was 280 nM; on TYK2, 275 nM; on JAK1 it was 26.8 nM.
As for `CC1(n2nnc3cnc4[nH]ccc4c32)CCN(CCC#N)CC1` [Example 582, 3-[4-Methyl-4-(6H-1,2,3,5,6-pentaaza-as-indacen-1-yl)-piperidin-1-yl]-propionitrile], the inhibition constant Ki on JAK2 stood at 364 nM; on JAK3, 592 nM; on TYK2 it was 1050 nM; on JAK1 it was 102 nM.
The corresponding values for `CC1(n2nnc3cnc4[nH]ccc4c32)CCN(S(C)(=O)=O)CC1` [Example 583, 1-(1-Methanesulfonyl-4-methyl-piperidine-4-yl)-1,6-dihydro-1,2,3,5,6-pentaaza-as-indacen-1-yl] are 31.9 nM, 363 nM, 173 nM and 4.36 nM.
The corresponding values for `CC1(n2nnc3cnc4[nH]ccc4c32)CCN(S(=O)(=O)c2cccnc2)CC1` [Example 584, 1-[4-Methyl-1-(pyridine-3-sulfonyl)-piperidin-4-yl]-1,6-dihydro-1,2,3,5,6-pentaaza-as-indacene] are 105 nM, 1320 nM, 454 nM and 37 nM.
The corresponding values for `C[C@@H](O)c1nc2cnc3[nH]ccc3c2n1C1(C)CCN(S(C)(=O)=O)CC1` [Example 585, (R)-1-[1-(1-Methanesulfonyl-4-methyl-piperidinyl)-1,6-dihydro-1,2,3,5,6-tetraaza-as-indacen-2-yl]-ethanol] are 63.4 nM, 88.3 nM, 67.3 nM and 9.46 nM.
With `CC(C)(C#N)CN1CCC(n2cnc3cnc4[nH]ccc4c32)CC1` [Example 586, 2,2-Dimethyl-3-[4-(6H-1,2,3,5,6-tetraaza-as-indacen-1-yl)-piperidin-1-yl]-propionitrile], the Ki on JAK2 is 1.6 nM; on JAK3 it was 23.3 nM; on TYK2, 9.73 nM; at JAK1, 1.09 nM.
Take `Cc1nc2cnc3[nH]ccc3c2n1C1CCN(CC(F)(F)F)CC1` [Example 587, 2-Methyl-1-[1-(2,2,2-trifluoro-ethyl)-piperidin-4-yl]-1,6-dihydro-1,2,3,5,6-tetraaza-as-indacene]: the Ki is 2.16 nM at JAK2, 8.35 nM at JAK3, 8.02 nM at TYK2 and 0.61 nM on JAK1.
